{"source": "patent EP4653001A1", "about": "“TREATMENT, DIAGNOSIS AND/OR PROGNOSIS OF MITOCHONDRIAL DISEASES” (Universidad Autónoma de Madrid, priority 2024, dated 2025)", "key": {"[1]": {"test_system": "143B cell lines", "test": "Cell viability of CRISPR knock-out 143B cell lines treated with ETC inhibitors", "assay_type": "cell-based", "protocol": "All cell lines, 143b, HeLa, U2OS, and transmitochondrial cybrids carrying mutation in CI (ND2), CIII (CytB) or CIV (Cox2) subunits, were maintained in DMEM high glucose (HyClone), 10% FBS and 1% P/S at 37°C with 5% CO2. Mitochondrial mutant cells were cultured with supplementation of 50 µg/mL uridine. The selected cancer cell lines with different levels of malic enzyme (HCC15, KYSE410, CAKI1, J82, MDAMB453, Colo320, NCIH1703) were obtained from the DSMZ-German Collection of Microorganisms and Cell Cultures GmbH and cultured in the same DMEM 10% FBS medium. OCI-Lys3 and RCH-ACV cell lines (cells in suspension), were obtained from the same repository and cultured in RPMI 10% FBS medium. Transfections for gain- and loss-of-function studies were performed according to the manufacturer's instructions using the polyfect reagent (Qiagen, 301107). For cell number and proliferation experiments, cells were seeded in 12 or 6-well plates and allowed to proliferate for the specified durations. Subsequently, cells were trypsinized and quantified using a hemocytometer (NanoEnTek, DHC-N01). Cell viability was quantified using propidium iodide (PI; 50 µg/ml) staining.\nGeneration of knockout cell lines using CRISPR-Cas9 technology was performed with the lenti-CRISPR v2 vector (Addgene #52961). Guide sequences are: • sgGFPT1, 5-[…]-3 (SEQ ID NO: 1); • sgG6PD, 5-[…]-3 (SEQ ID NO: 2); • sgPHGDH, 5-[…]-3 (SEQ ID NO: 3); • sgMPC1, 5-[…]-3 (SEQ ID NO: 4) • sgPC, 5-CAGGCCCGGAACACACGGA-3 (SEQ ID NO: 5); • sgACLY, 5-[…]-3 (SEQ ID NO: 6); • sgME1, 5-[…]-3 (SEQ ID NO: 7).\nTo investigate glucose-dependent alternative metabolic pathways that become essential upon ETC inhibition, we generated through CRISPR/Cas9 technology, knock-out (KO) 143B cell lines for each of the following rate-limiting enzymes and transporters. We selected glucose 6 phosphate dehydrogenase (G6PD) for the PPP, Glutamine-Fructose-6-Phosphate Transaminase 1 (GFPT1) for the hexosamine pathway, Phosphoglycerate Dehydrogenase (PHGDH) for the serine biosynthesis pathway and Mitochondrial Pyruvate Carrier 1 (MPC1) to prevent pyruvate entry into the mitochondria. These KO and Control cells were treated with two specific ETC inhibitors (Piericidin A that targets Complex I and Antimycin A that targets Complex III) and cell viability was assessed after 3 days of treatment. […] We took advantage of the fruit fly Drosophila melanogaster model, as it is cost- and time-efficient and recapitulate a wide range of phenotypes seen in patients with metabolic and mitochondrial disorders. We obtained flies carrying mutations in Zw and Pgd genes (named: Pgd^39 Zw^lo2a), corresponding to human orthologs G6PD and 6PGD respectively. […]"}, "[2]": {"test_system": "143B cells", "test": "Lactate release in 143B cells (proxy of glycolysis)", "assay_type": "cell-based", "settings": "24 h", "protocol": "(§1) Increased lactate secretion is considered a good indicator of enhanced glycolytic rates, which is a common feature of ETC-inhibited cells as they switch from OXPHOS to glycolysis to maintain ATP levels. […] We culture 143B cells in the presence of Piericidin for 24 h and PPP activity and lactate release, as a proxy of glycolysis, were measured. As expected, lactate detection in the media was higher in CI-inhibited cells. […] Next, we wonder if in this context, glucose can be overused by glycolysis and therefore diverted away from the PPP. Diseases associated with impaired mitochondrial function negatively impact high energy demanding tissues such as the brain. As such, neurons that are highly sensitive to ETC inhibition also rely strongly on glucose metabolism. Thus, we used mouse cortical neurons to determine the rates of glycolysis and PPP as glucose levels become limiting. Control and Piericidin treated neurons where cultured in media containing supraphysiological (25 mM), physiological (5 mM) or subphysiological concentrations of glucose (2,5 mM). […] Decreased PPP activity under low glucose (2,5 mM) correlated with a rapid decline in NADPH/NADP+ levels in CI-inhibited cells. Conversely, glucose availability had no effect on ATP levels at this timepoint."}, "[3]": {"test_system": "mouse cortical neurons", "test": "PPP activity measurement in cortical neurons", "assay_type": "cell-based", "protocol": "Primary cultures of C57BL/6 mouse cortical neurons were prepared from embryos between embryonic days 16.5 and 17.5 and seeded onto pre-treated plates coated with Poly-L-lysine hydrobromide (500 µg/ml). We used Neurobasal medium without D-glucose and sodium pyruvate (ThermoFisher) to modulate D-glucose levels, depending on the experiment (2.5 mM, 5 mM, or 25 mM).\nThe determination of pentose-phosphate pathway (PPP) activity was conducted by assessing the difference between 14CO2 production from 1-14C-glucose, which decarboxylates through the 6-phosphogluconate dehydrogenase-catalyzed reaction, and that of 6-^14C-glucose, which decarboxylates through the tricarboxylic acid cycle.\nas §1"}, "[4]": {"test_system": "astrocytes", "test": "ATP measurement in astrocytes (ATP Assay Kit)", "assay_type": "cell-based, mouse", "settings": "100 nM, 24 h", "protocol": "Primary cultures of C57BL/6 mouse cortical astrocytes were derived from postnatal day 2-3 pups. They were plated on pre-treated dishes coated with Poly-L-lysine (100 µg/ml) and cultured in DMEM/F-12 (ThermoFisher) supplemented with 15% FBS and 1% penicillin/streptomycin (P/S). After 24 hours of plating, the medium was switched to 10% FBS.\nATP Assay Kit (Abcam, #ab83355) was used to analyze ATP levels. Briefly, Cells were seeded in M24 plates (neurons at 500,000 cells/mL and monolayer density for astrocytes), and for the ATP experiments, three wells per condition were combined. An alternative deproteinization protocol was applied to purify the samples, and a Colorimetric Assay was conducted as outlined in the original protocol. The measurements were obtained using the CLARIOstar Plus plate reader from BMG LABTECH."}}, "data": [{"smiles": "CC=C(C)C(O)C(C)C=C(C)C=CCC(C)=CCc1nc(OC)c(OC)c(O)c1C", "note": "(stereo not shown) [Piericidin, Piericidin A]", "values": [{"measurement": "cell viability", "setting": "[1]; G6PD KO 143B cells, after 3 days of treatment", "value": "sensitive"}, {"measurement": "survival or proliferation", "setting": "[1]; KO cells for GFPT1, PHGDH or MPC1, after 3 days of treatment", "value": "no differences"}, {"measurement": "lactate detection in the media", "setting": "[2]", "value": "higher"}, {"measurement": "PPP activity", "setting": "[3]; 5 mM glucose, did not reach statistical significance", "value": "trend towards reduced PPP activity"}, {"measurement": "PPP activity", "setting": "[3]; limited glucose availability (2,5 mM), 100 nM, 16 h", "value": "prominent drop"}, {"measurement": "PPP activity", "setting": "[3]; neurons cultured in 25 mM glucose, 100 nM, 16 h", "value": "significantly upregulation"}, {"measurement": "ATP levels", "setting": "[4]", "value": "did not cause any alteration"}]}]}
